Patent US7998978B2 (Pfizer Inc., priority 2006, dated 2011)

Biological target: T1, JNK1α1 (Homo sapiens, UniProt P45983)
T1 construct: catalytic domain containing amino acids 1-364 and N-terminal hexahistidine tag; hexahistidine (His6) (N); made in house; host or cells: E. coli BL21 (DE3)
Test: Coupled spectrophotometric (PK/LDH) JNK1α1 assay: % inhibition and Ki determination
Type: biochemical
Conditions: for Ki: JNK-1
Method in brief: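 Initial rates were taken from the absorbance decrease at 340 nm at 30° C. Ki was fitted with a tight-binding model over 11 concentrations (top 100 μM); single-point inhibition was tested at 1 or 10 μM.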

T1 sequence (P45983 1-364): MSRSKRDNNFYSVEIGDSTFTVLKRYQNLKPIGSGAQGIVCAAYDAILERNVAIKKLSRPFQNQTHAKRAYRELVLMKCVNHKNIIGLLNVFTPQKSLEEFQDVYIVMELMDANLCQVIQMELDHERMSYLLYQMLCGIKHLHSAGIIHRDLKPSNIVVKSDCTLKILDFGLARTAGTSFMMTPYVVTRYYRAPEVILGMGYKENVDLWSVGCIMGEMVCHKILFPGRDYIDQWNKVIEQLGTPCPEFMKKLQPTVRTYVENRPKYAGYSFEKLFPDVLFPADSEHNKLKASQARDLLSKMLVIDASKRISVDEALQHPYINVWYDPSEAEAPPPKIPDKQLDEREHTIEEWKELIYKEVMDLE

Structure (SMILES) | Ki [nM] | also measured
CC(=O)NC1CCC(Nc2cc3cc(-c4cn[nH]c4)ccc3cn2)CC1 (stereo not shown) [Example 217, N-(4-{[6-(1H-pyrazol-4-yl)isoquinolin-3-yl]amino}cyclohexyl)acetamide] | 775 | –
O[C@H]1CC[C@H](Nc2ncc3ccc(OC4CCCN(Cc5ccccn5)C4)cc3n2)CC1 (stereo partly drawn) [Example 286, trans-4-[(7-{[1-(pyridin-2-ylmethyl)piperidin-3-yl]oxy}quinazolin-2-yl)amino]cyclohexanol] | – | inhibition at 1 µM (read-out: % Inhibition JNK-1): 42%
O[C@H]1CC[C@H](Nc2ncc3cccc(OC4CCOC4)c3n2)CC1 (stereo partly drawn) [Example 171, trans-4-{[8-(tetrahydrofuran-3-yloxy)quinazolin-2-yl]amino}cyclohexanol] | 483 | –
CC(=O)N[C@H]1CC[C@H](Nc2ncc3cccc(C(=O)N[C@@H]4COC[C@H]4O)c3n2)CC1 (relative stereo) [Example 140, 2-{[trans-4-(acetylamino)cyclohexyl]amino}-N-[(trans)-4-hydroxytetrahydrofuran-3-yl]quinazoline-8-carboxamide] | 52 | –
CS(=O)(=O)N[C@H]1CC[C@H](Nc2ncc3cccc(OC4CCOCC4)c3n2)CC1 [Example 182, N-(trans-4-{[8-(tetrahydro-2H-pyran-4-yloxy)quinazolin-2-yl]amino}cyclohexyl)methanesulfonamide] | 146 | –
COc1ncccc1NC(=O)c1cccc2cnc(N[C@H]3CC[C@H](O)CC3)nc12 [Example 316, 2-[(trans-4-hydroxycyclohexyl)amino]-N-(2-methoxypyridin-3-yl)quinazoline-8-carboxamide] | – | inhibition at 1 µM (read-out: % Inhibition JNK-1): 18%
CC(C)C[C@@H](CO)NC(=O)c1ccc2cnc(NC3CCCCC3)nc2c1 [Example 374, 2-(cyclohexylamino)-N-[(1S)-1-(hydroxymethyl)-3-methylbutyl]quinazoline-7-carboxamide] | 102 | –
O=C(c1ccc2cnc(N[C@H]3CC[C@H](O)CC3)nc2c1)N1CCC[C@H]1CO [Example 85, trans-4-[(7-{[(2S)-2-(hydroxymethyl)pyrrolidin-1-yl]carbonyl}quinazolin-2-yl)amino]cyclohexanol] | 3010 | –
O[C@H]1CC[C@H](Nc2ncc3cccc(-c4ccccc4)c3n2)CC1 [Example 205, trans-4-[(8-phenylquinazolin-2-yl)amino] cyclohexanol] | 29 | –
c1cnc(N2CCC(Nc3cc4cc(-c5cn[nH]c5)ccc4cn3)CC2)nc1 [Example 216, 6-(1H-pyrazol-4-yl)-N-(1-pyrimidin-2-ylpiperidin-4-yl)isoquinolin-3-amine] | 480 | –
O=C(NC1(c2ccccn2)CC1)c1cccc2cnc(N[C@H]3CC[C@H](O)CC3)nc12 [Example 462, 2-[(trans-4-hydroxycyclohexyl)amino]-N-(1-pyridin-2-ylcyclopropyl)quinazoline-8-carboxamide] | 471 | –
O=C(CCc1ccc(C(F)(F)F)cc1)Nc1cc2cc(-c3cn[nH]c3)ccc2cn1 [Example 39, N-[6-(1H-pyrazol-4-yl)isoquinolin-3-yl]-3-[4-(trifluoromethyl)phenyl]propanamide] | 7 | –
COc1ccccc1-c1cccc2cnc(N[C@H]3CC[C@H](O)CC3)nc12 [Example 204, trans-4-{(8-(2-methoxyphenyl)quinazolin-2-yl]amino} cyclohexanol] | 303 | –
O=C(N[C@@H]1COC[C@H]1O)c1cccc2cnc(N[C@H]3CC[C@H](O)CC3)nc12 (relative stereo) [Example 139, 2-[(trans-4-hydroxycyclohexyl)amino]-N-[(trans)-4-hydroxytetrahydrofuran-3-yl]quinazoline-8-carboxamide] | 16 | –
COC1CCC(C(=O)Nc2cc3cc(-c4cn[nH]c4)ccc3cn2)CC1 (stereo not shown) [Example 28, 4-methoxy-N-[6-(1H-pyrazol-4-yl)isoquinolin-3-yl]cyclohexanecarboxamide] | 32 | –
O[C@H]1CC[C@H](Nc2ncc3ccc(O[C@H]4CCN(Cc5ccccc5)C4)cc3n2)CC1 [Example 277, trans-4-[(7-{[(3S)-1-benzylpyrrolidin-3-yl]oxy}quinazolin-2-yl)amino]cyclohexanol] | – | inhibition at 1 µM (read-out: % Inhibition JNK-1): 46%
COc1cccc2cnc(N[C@H]3CC[C@H](O)CC3)nc12 [Example 150] | 359 | –
O=C(CN1N=C(c2ccccc2)CCC1=O)Nc1cc2cc(-c3cn[nH]c3)ccc2cn1 [Example 34, 2-(6-oxo-3-phenyl-5,6-dihydropyridazin-1(4H)-yl)-N-[6-(1H-pyrazol-4-yl)isoquinolin-3-yl]acetamide] | 17 | –
OC1(c2cncnc2)CCC(Nc2cc3cc(-c4cn[nH]c4)ccc3cn2)CC1 (stereo not shown) [Example 215, 4-{[6-(1H-pyrazol-4-yl)isoquinolin-3-yl]amino}-1-pyrimidin-5-ylcyclohexanol] | 250 | –
O[C@H]1CC[C@H](Nc2ncc3cccc(OCC4CCCCO4)c3n2)CC1 (stereo partly drawn) [Example 166, trans-4-{[8-(tetrahydro-2H-pyran-2-ylmethoxy)quinazolin-2-yl]amino}cyclohexanol] | 296 | –

Structure (SMILES) | Ki [nM] | also measured
CC[C@@H](CO)NC(=O)c1ccc2cnc(NC(C)C)nc2c1 [Example 411, N-[(1S)-1-(hydroxymethyl)propyl]-2-(isopropylamino)quinazoline-7-carboxamide] | 1100 | –
CC(C)Nc1ncc2ccc(C(=O)N[C@@H](C)CO)cc2n1 [Example 434, N-[(1S)-2-hydroxy-1-methylethyl]-2-(isopropylamino)quinazoline-7-carboxamide] | – | inhibition at 1 µM (read-out: % Inhibition JNK-1): 15%
O=C(NCc1nnc(C2CC2)[nH]1)c1cccc2cnc(N[C@H]3CC[C@H](O)CC3)nc12 [Example 490, N-[(5-cyclopropyl-4H-1,2,4-triazol-3-yl)methyl]-2-[(trans-4-hydroxycyclohexyl)amino]quinazoline-8-carboxamide] | – | inhibition at 10 µM (@10 uM, read-out: % Inhibition JNK-1): 40%
COCCOc1ccc2cnc(N[C@H]3CC[C@H](O)CC3)nc2c1 [Example 272, trans-4-{[7-(2-methoxyethoxy)quinazolin-2-yl]amino)cyclohexanol] | – | inhibition at 1 µM (read-out: % Inhibition JNK-1): 63%
O[C@H]1CC[C@H](Nc2ncc3ccc(OC4CCN(c5cccnn5)CC4)cc3n2)CC1 [Example 293, trans-4-({7-[(1-pyridazin 3-ylpiperidin-4-yl)oxy]quinazolin-2-yl}amino)cyclohexanol] | – | inhibition at 1 µM (read-out: % Inhibition JNK-1): 52%
O=C(NC(CO)c1ccccc1)c1ccc2cnc(NC3CCCC3)nc2c1 (stereo not shown) [Example 379, 2-(cyclopentylamino)-N-(2-hydroxy-1-phenylethyl)quinazoline-7-carboxamide] | 177 | –
O=C(NCCc1cn2ccccc2n1)c1cccc2cnc(N[C@H]3CC[C@H](O)CC3)nc12 [Example 494, 2-[(trans-4-hydroxycyclohexyl)amino]-N-(2-imidazol[1,2-a]pyridin-2-ylethyl)quinazoline-8-carboxamide] | – | inhibition at 1 µM (read-out: % Inhibition JNK-1): 16%
O=C(CCc1cc(Cl)no1)Nc1cc2cc(-c3cn[nH]c3)ccc2cn1 [Example 12, 3-(3-chloroisoxazol-5-yl)-N-[6-(1H-pyrazol-4-yl)isoquinolin-3-yl]propanamide] | 29 | –
O=C(NC1CCOC1)c1ccc2cnc(N[C@H]3CC[C@H](O)CC3)nc2c1 (stereo partly drawn) [Example 347, 2-[(trans-4-hydroxycyclohexyl)amino]-N-(tetrahydrofuran-3-yl)quinazoline-7-carboxamide] | 963 | –
O[C@H]1CC[C@H](Nc2ncc3ccc(OC4CCOC4)cc3n2)CC1 (stereo partly drawn) [Example 144, trans-4-{[7-(tetrahydrofuran-3-yloxy)quinazolin-2-yl]amino}cyclohexanol] | 127 | –
O=C(CCc1ccc(F)cc1)Nc1cc2cc(-c3cn[nH]c3)ccc2cn1 [Example 44, 3-(4-fluorophenyl)-N-[6-(1H-pyrazol-4-yl)isoquinolin-3-yl]propanamide] | 11 | –
CN(C)CCNC(=O)c1cccc2cnc(N[C@H]3CC[C@H](O)CC3)nc12 [Example 127, N-[2-(dimethylamino)ethyl]-2-[(trans-4-hydroxycyclohexyl)amino]quinazoline-8-carboxamide] | 3490 | –
CC(C)(O)c1ccc(CNC(=O)c2ccc3cnc(N[C@H]4CC[C@H](O)CC4)nc3c2)cc1 [Example 366, 2-[(trans-4-hydroxycyclohexyl)amino]-N-[4-(1-hydroxy-1-methylethyl)benzyl]quinazoline-7-carboxamide] | 2170 | –
CC(C)(CN1CCOCC1)NC(=O)c1ccc2cnc(N[C@H]3CC[C@H](O)CC3)nc2c1 [Example 89, N-(1,1-dimethyl-2-morpholin-4-ylethyl)-2-[(trans-4-hydroxycyclohexyl)amino]quinazoline-7-carboxamide] | 269 | –
CC(C)(O)CNC(=O)c1cccc2cnc(N[C@H]3CC[C@H](NS(C)(=O)=O)CC3)nc12 [Example 130, N-(2-hydroxy-2-methylpropyl)-2-({trans-4-[(methylsulfonyl)amino]cyclohexyl}amino)quinazoline-8-carboxamide] | 141 | –
O=C(N[C@H]1CC[C@H](CO)CC1)c1ccc2cnc(N[C@H]3CC[C@H](O)CC3)nc2c1 [Example 345, 2-[(trans-4-hydroxycyclohexyl)amino]-N-[trans-4-(hydroxymethyl)cyclohexyl]quinazoline-7-carboxamide] | 885 | –
FCCN[C@H]1CC[C@H](Nc2ncc3cccc(OC4CCOCC4)c3n2)CC1 [Example 189, trans-N-(2-fluoroethyl)-N′-[8-(tetrahydro-2H-pyran-4-yloxy)quinazolin-2-yl]cyclohexane-1,4-diamine] | 877 | –
O=C(c1cccc2cnc(N[C@H]3CC[C@H](O)CC3)nc12)N1CCC(O)C1 (stereo partly drawn) [Example 112, 1-({2-[(trans-4-hydroxycyclohexyl)amino]quinazolin-8-yl}carbonyl)pyrrolidin-3-ol] | > 10000 | –
O[C@H]1CC[C@H](Nc2ncc3ccc(Oc4ccccc4)cc3n2)CC1 [Example 161, trans-4-[(7-phenoxyquinazolin-2-yl)amino]cyclohexanol] | 111 | –
CC(C)CC(=O)Nc1cc2cc(-c3cn[nH]c3)ccc2cn1 [Example 11, 3-methyl-N-[6-(1H-pyrazol-4-yl)isoquinolin-3-yl]butanamide] | 26 | –
